# Source: patent publication US5075327A, “Antipsoriatic agents” (Hoffmann-La Roche Inc., priority 1988, dated 1991)
# Like-named read-outs stand apart in the source and are kept apart here.
# Columns and labels:
# human keratinocytes = assay: Inhibition of proliferation of cultured human keratinocytes (cell count by Coulter Counter); type: cell-based; conditions: for inhibition at 1 µM / inhibition at 0.1 µM / inhibition at 0.01 µM: Homo sapiens, Keratinocyte; for inhibition at 1 µM: 10^-6 M; for inhibition at 0.1 µM: 10^-7 M; for inhibition at 0.01 µM: 10^-8 M; for Percent Inhibition on Keratinocyte Proliferation: ^ 10^-10 M
# Procedure: Human neonatal foreskins were collected by circumcision and placed into tubes containing DMEM media. Upon arrival at the laboratory the foreskins were mechanically trimmed of excess dermis and treated with a solution of trypsin/EDTA (0.05%/0.02%) at 4° C. overnight. The epidermis was stripped from the dermis, agitated in buffered saline to remove basal keratinocytes and the stratum corneum buffer was removed. The separated cells were centrifuged, resuspended in media, counted and the cells were plated onto a plain plastic material layer.
# The keratinocytes were plated at a density of approximately about 10^5 cells/cm^2 in 35 cm^2 dishes. The cells were grown in keratinocyte growth media (KGM-modified MCDB 153 containing […] by Clonetics of Boulder, Colo.) according to protocols originally developed by Boyce, S. T. and Ham, R. G., J. of Tissue Culture Meth. 9:83-93 (1985). The cells were grown for 5-10 days and changed every 2-3 days with keratinocyte growth media with 1.5 mM CaCl2 (hereinafter KGM/1.5 mM CaCl2) until cells reached a 75% confluency by visual observation. All the cultures were incubated in a humidified atmosphere of 5% CO2 at 37° C.
# To establish keratinocyte cell cultures as antiproliferative assays, cells prepared as described in the foregoing were washed with PBS and removed from the culture surface with a solution of trypsin/EDTA (0.25%/0.03%). The removed cells were then centrifuged resuspended in the KGM/1.5 mM CaCl2 and counted. The cells were then distributed to 6 well plates at 100,000 cells per well as described in the foregoing. […] After 24-48 hours the cells were changed into KGM/1.5 mM CaCl2. Test compounds were added one to two days later and the cultures maintained for seven days. The media was changed every 2-3 days.
# Solutions of the test compounds were prepared as follows: 1 milligram quantities were received in amber glass vials, and stored at -20° C. Sufficient 100% ethanol was added directly to vials to obtain a millimolar solution that was subsequently aliquoted into small amber vials, overlayed with argon gas and stored at -20° C. Each stock solution was thawed once, used and discarded. Aliquots from the stock solutions were diluted directly into medium and then serially diluted from micromolar to 10^-12 M concentrations. Dilutions from 10^-8 M to 10^-12 M had ethanol added for a final concentration of 0.1%. Stock solutions were used within one month. Control cultures were treated with 0.1% ethanol.
# For each experiment every culture well received the same number of cells from the same culture source. At the termination of the experiment the number of cells per was determined by the following procedure. Wells were washed twice with PBS and then incubated for approximately 10-20 minutes at 37° C. with a trypsin/EDTA solution (0.25%/0.03%). PBS plus 0.1% […] was added and the cells were suspended. An aliquot of the cells was placed into isotonic buffered saline and counted on an electronic particle counter (e.g. Coulter Counter® device by Coulter Electronics of Hialeah, Fla.).
# For statistical analysis, the mean was calculated for all wells in each treatment group. Standard error was determined by nonbiased analysis using a value for the number of wells in each group, preferably N=3.
# Quantification of proliferation was done by enumerating the number of keratinocyte cells in each well using the Coulter Counter®. Results shown in Table 1 below show the percent reduction or inhibition of keratinocyte cells calculated for each of 4 concentrations of the compounds tested according to the formula: [formula]
# Each compound was tested in triplicate. The control (ETOH), as noted above, was 0.1% ethanol.
# human keratinocyte cells = assay: Toxicity to keratinocytes in the proliferation assay; type: cell-based; conditions: 10^-6 M; keratinocyte cells in vitro
# [1] = test system: cholesterol biosynthesis in HepG2 cells; assay: Inhibition of cholesterol biosynthesis in HepG2 cells (3H2O incorporation into cholesterol); type: cell-based; conditions: for IC50: Homo sapiens
# Procedure: HepG2 cells are maintained in 175 cm^2 T flasks in Darlington Medium supplemented with 10% fetal bovine serum (FBS). Darlington Medium consists of 3 parts Minimal Essential Medium, 1 part Waymouth's MAB87/3 medium and 3×10^-8 M sodium selenite. This medium is supplemented with 100 U/ml penicillin, 100 ug/ml streptomycin and 2.5 ug/ml Fungizone. In order to establish optimal conditions for the whole cell cholesterol biosynthesis assay, preliminary experiments were performed. 0.25, 0.5, 0.75 or 1×10^6 cells were seeded into 6 well cluster plates in 2 ml of fully supplemented Darlington Medium. The serum supplemented medium was aspirated after 72 hours and replaced with serum free Darlington Medium with antibiotics. After 24, 48 or 72 hours serum free, the cells received either 0.5 or 1 mCi ^3 H2 O/ml medium. This medium was aspirated after 24 hours and the cells were washed twice with phosphate buffered saline. The cells were frozen overnight at -20° C. after which they were harvested from the wells with 1 ml of trypsin-EDTA. Extracted lipids were separated on an HPLC system; cholesterol peaks were collected and counted in a scintillation counter. Results are expressed as the dpm ^3 H2 O incorporated into cholesterol.
# In the screening assay the cells received compounds at various concentrations concommitantly with ^3 H2 O. When ethanol was the vehicle, the final ethanol concentration was 0.5%, and control wells with that concentration of ethanol were used in each experiment. Results are expressed as the percent dpm ^3 H2 O incorporated into cholesterol in treated vs control wells. IC50 values are calculated using a linear regression analysis.
# cholesterol biosynthesis = conditions: U.S. Pat. No. 4,450,171, col. 1, lines 43-51; cited from earlier work
# [2] = 168 h, 7 days, N = 3, read-out: Percent Inhibition on Keratinocyte Proliferation
Compound,inhibition at 1 µM (human keratinocytes; [2]),inhibition at 0.1 µM (human keratinocytes; [2]),inhibition at 0.01 µM (human keratinocytes; [2]),inhibition at 1 µM (human keratinocytes; read-out: inhibition rate of proliferation of keratinocyte cells),"Percent Inhibition on Keratinocyte Proliferation (human keratinocytes; 7 days, N = 3)",toxicity to the cells (human keratinocyte cells),"cholesterol biosynthesis inhibition as compared to mevinolin ([1]; HepG2 cells, Tests I and II)","IC50 ([1]; HepG2, Test I)","IC50 ([1]; HepG2, Test II)",inhibition of cell proliferation relative to compound A (human keratinocytes; conclusion in words),activity in inhibiting cholesterol biosynthesis among the natural mevinolin compounds (cholesterol biosynthesis)
"CC[C@H](C)C(=O)O[C@H]1CCC=C2C=CC[C@H](CC[C@@H]3C[C@@H](O)CC(=O)O3)[C@]21C [Compound A, [4R-(4α,6β),6[1S-[1α,8β(S), 8aα]]]-6-[2-[1,2,6,7,8,8a-hexahydro-8a-methyl-8-(2-methyl-1-oxo-butoxy)-1-naphthalenyl]-ethyl]tetrahydro-4-hydroxy-2H-pyran-2-one]",17.1%,10%,8.24%,~20%,20.98%,without toxicity to the cells,exhibited cholesterol biosynthesis inhibition,47 nM,3810 nM,–,–
"CC(=O)O[C@H]1CCCC2=CCC[C@H](CCC=O)[C@]21C [Compound B, [1S-(1α,8β,8aβ)]-8-(2-formylethyl)-8a-methyl-1,2,3,4,6,7,8,8a-octahydro-1-naphthalenol-acetate]",19.5%,31.4%,22.9%,–,4.52%,–,–,–,–,slightly greater rate than compound A,–
"CCC(C)C(=O)OC1CC(C)C=C2C=CC(C)C(CCC3CC(O)CC(=O)O3)C21 (centres unmarked) [mevinolin, reference compound]",–,–,–,–,–,–,–,20 nM,640 nM,–,most active member
